Measurements reported in patent publication US12338483B2, “Compositions and methods for logic-gated profiling of biologic activity” (Georgia Tech Research Corporation, priority 2019, dated 2025).
Bridge positions count the residues as written; N and C are the ends. Square brackets hold non-standard residues; d marks the D form. Ends that are not written are not given here.

Legend:
[1] = molecular target: T1, GzmB (Homo sapiens, UniProt P10144) and West Nile Virus NS3 protease; assay: Incubation of GzmB/MMP AND-gate sensor with GzmB and West Nile Virus NS3 protease; assay type: biochemical; conditions: sensor 5 μM; 300 nM GzmB and 100 nM protease; 1.5 hours; FIG. 21
T1 construct: West Nile Virus NS3 protease
T1 sequence (P10144 21-247): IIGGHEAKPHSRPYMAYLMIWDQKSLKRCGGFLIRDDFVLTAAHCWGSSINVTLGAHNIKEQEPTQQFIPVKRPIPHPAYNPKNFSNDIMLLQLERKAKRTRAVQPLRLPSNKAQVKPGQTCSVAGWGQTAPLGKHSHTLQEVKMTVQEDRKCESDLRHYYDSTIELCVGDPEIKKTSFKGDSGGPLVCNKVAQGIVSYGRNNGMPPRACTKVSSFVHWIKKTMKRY
Protocol: (§1) Next the protease activity sensor was incubated with GzmB and either MMP8 or one of two viral proteases (West Nile Virus NS3 protease and Tobacco Etch Virus protease) to show the AND-gate sensor can distinguish immune activity in tumors from viral infections (FIG. 21). The sensor produced low signals with the viral proteases compared to MMP8.
(§2) FIGS. 20-21 show mean change in fluorescence (7D, kinetic trace) after incubation of GzmB/MMP AND-gate sensor (5 μM) with (7C) 300 nM GzmB and/or 100 nM different MMP's or (7D) 300 nM GzmB and 100 nM West Nile Virus NS3 protease, Tobacco Etch Virus protease, or MMP8 for 1.5 hours, n=3.

[2] = tested on: GzmB and MMPs; assay: Cleavage assay of GzmB/MMP AND-gate sensor with each MMP with and without GzmB; assay type: biochemical; conditions: sensor 5 μM; 300 nM GzmB and/or 100 nM different MMPs; 1.5 hours; all three MMPs; FIG. 20
Protocol: Then a cleavage assay was performed with the GzmB/MMP AND-gate sensor, testing the probe with each MMP with and without GzmB (FIG. 20).
as §2

[3] = molecular target: T2, GzmB and Tobacco Etch Virus protease (Homo sapiens, UniProt P10144); assay: Incubation of GzmB/MMP AND-gate sensor with GzmB and Tobacco Etch Virus protease; assay type: biochemical; conditions: sensor 5 μM; 300 nM GzmB and 100 nM protease; 1.5 hours; FIG. 21
T2 construct: Tobacco Etch Virus protease
T2 sequence (P10144 21-247): as above
Protocol: as §1, §2

[4] = molecular target: T3, GzmB in supernatant of OT1 T-cell co-incubation with EL4 or EG7-OVA cells, and Thrb (UniProt P00734+P04187); assay: Cleavage assay with supernatant of transgenic T-cell killing assay as GzmB source, plus Thrb; assay type: cell-based, mice; conditions: nanoparticle-conjugated sensor 1 μM; 10% supernatant from EL4 and EG7-OVA co-incubation and/or 3.7 Thrb; 12 hours; FIG. 17
T3 construct: using the supernatant as a GzmB source and adding Thrb; endogenous in cells; host or cells: T cells from OT1 mice co-incubated with EL4 or EG7-OVA cells; supernatant used at 10%
T3 sequence (P04187 21-247, one chain of several): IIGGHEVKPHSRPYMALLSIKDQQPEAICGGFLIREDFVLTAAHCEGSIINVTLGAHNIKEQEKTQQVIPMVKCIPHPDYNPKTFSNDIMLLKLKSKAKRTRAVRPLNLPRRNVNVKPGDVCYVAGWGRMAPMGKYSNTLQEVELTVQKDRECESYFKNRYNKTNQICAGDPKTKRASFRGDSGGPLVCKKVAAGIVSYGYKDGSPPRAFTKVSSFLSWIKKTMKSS
Protocol: FIGS. 15-17 show an example of the disclosed AND-gate protease activity sensors used with a living system. The sensors were evaluated in an in vitro transgenic T-cell killing assay in which cytotoxic T-cells taken from OT1 mice were co-incubated with target cells EL4 and EG7-OVA (FIG. 15). OT1 T cells can recognize the OVA antigen and mount an immune response, so the T-cells would theoretically respond to the EG7-OVA cells but not to the EL4 cells. Supernatant was harvested from the co-incubation and quantified the immune response by GzmB secretion using ELISA (FIG. 16). The concentration was measured after overnight co-incubation at 37° C. with target cells, as measured by ELISA, n=3. It was confirmed that co-incubation of OT1 cells with EG7-OVA cells, but not with EL4 cells, increases GzmB secretion by OT1 cells.
Then we cleavage assays were run with the AND-gate sensors, using the supernatant as a GzmB source and adding Thrb. […] Data for EL4 and EG7-OVA were normalized by subtraction of trace using OT1-only supernatant, and data for EL4+Thrb and EG7-OVA+Thrb were normalized by subtraction of trace using OT1-only supernatant and Thrb.

[5] = tested on: GzmB and Thrb; assay: Cleavage assay of GzmB/Thrb AND-gate sensor with GzmB and/or Thrb; assay type: biochemical
Protocol: Next, the AND-gate logic protease sensor was tested in a cleavage assay.
Thus, the presence of even small amounts of a protease can be detected if the other protease is also present. FIGS. 13-14 show: mean change in fluorescence after incubation of the AND-gate sensor with (FIG. 13) 9.2 nM Thrb and varying concentrations of GzmB (0-150 nM) or (FIG. 14) 300 nM GzmB and varying concentrations of Thrb (0-4.6 nM) for 2 hours, n=2. For all fluorescent readings, samples were excited at 485 nm, emission was measured at 528 nm, and samples were incubated at 37° C.

Row | Substance | signal with GzmB and West Nile Virus NS3 protease compared to MMP8 [1] | change of fluorescent signal on addition of GzmB to MMPs [2] | signal with GzmB and Tobacco Etch Virus protease compared to MMP8 [3] | signal (mean change in fluorescence) with T-cell co-incubation supernatant [4] | sensitivity of fluorescence to protease concentration ([5]; 9.2 nM Thrb with 0-150 nM GzmB, or 300 nM GzmB with 0-4.6 nM Thrb, 2 hours, FIGS. 13-14) | fluorescent signal, both proteases present together ([5]; nanoparticle-conjugated sensor 1 μM, 125 nM GzmB and 3.7 nM Thrb, 12 hours, FIG. 12) | fluorescent signal, either protease present alone ([5]; nanoparticle-conjugated sensor 1 μM, 125 nM GzmB or 3.7 nM Thrb, 12 hours, FIG. 12)
1 | GzmB/MMP AND-gate sensor: AND-gate protease activity sensor (SEQ ID NO: 2) that probes both GzmB and MMPs (CGIEFDSGGKGAPAALRAAGGCK; MOD_RES (11)..(11) D-Gly) | low signals | drastically increased the fluorescent signal by over two-fold | low signals | – | – | – | –
2 | GzmB/Thrb AND-gate sensor: Disulfide-cyclized peptide (SEQ ID NO: 1) with DABCYL quencher, 5-FAM reporter, GzmB and Thrb substrates and an azide for click conjugation (KCGIEFDSGGKGG[dF]PRSGGGCK; disulfide 2-21 (inferred); also: DABCYL quencher, 5-FAM reporter, azide for click conjugation) | – | – | – | high signal was attained only when Thrb was added to the GzmB-high OT1/EG7-OVA supernatant | very sensitive to small changes in the concentration of both proteases even in the nanomolar range | high fluorescent signal | not when either protease is present alone
